Assay results: the supplement of paper PMC10307832

Key:
Assay in all cases: relative viability (nuclei count vs DMSO), 5 days (fraction); higher = more cells survive
[1] = compound: Nc1ncn([C@H]2C[C@H](O)[C@@H](CO)O2)c(=O)n1 [Decitabine] + Cc1nc(Nc2ncc(C(=O)Nc3c(C)cccc3Cl)s2)cc(N2CCN(CCO)CC2)n1 [Dasatinib] (partner 0.075 µM)
Summary of the method: (§1)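 Cells from lung cancer lines were seeded into 1536-well plates and, one day later, dosed by pin tool. Treatments were either a single drug or a fixed dose of an anchor drug with five library-drug doses (not always all listed) in √10 steps. After 5 days, nuclei were stained in a one-step fixation (final 0.05% Triton X-100, 1% formaldehyde, 1 ug/ml Hoechst) and counted on 4× images, and relative viability is the treated-to-vehicle nuclei ratio, as the median of duplicate plates.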

[2] = compound: Nc1ncn([C@H]2C[C@H](O)[C@@H](CO)O2)c(=O)n1 [Decitabine] + CC1(C)CCC(c2ccc(Cl)cc2)=C(CN2CCN(c3ccc(C(=O)NS(=O)(=O)c4ccc(N[C@H](CCN5CCOCC5)CSc5ccccc5)c(S(=O)(=O)C(F)(F)F)c4)cc3)CC2)C1 [Navitoclax] (partner 0.5 µM)
Summary of the method: as §1

[3] = compound: COc1cc2c(Oc3ccc4[nH]c(C)cc4c3F)ncnc2cc1OCCCN1CCCC1 [Cediranib] + O=C(c1cc(Cc2n[nH]c(=O)c3ccccc23)ccc1F)N1CCN(C(=O)C2CC2)CC1 [Olaparib] (partner 8 µM)
Summary of the method: as §1

[4] = compound: COc1cc2c(Oc3ccc4[nH]c(C)cc4c3F)ncnc2cc1OCCCN1CCCC1 [Cediranib] + Nc1nc2[nH]cc(CCc3ccc(C(=O)N[C@@H](CCC(=O)O)C(=O)O)cc3)c2c(=O)[nH]1 [Pemetrexed] (partner 0.2 µM)
Summary of the method: as §1

Cell Line	relative viability ([1]; first compound 0.04 µM)	relative viability ([1]; first compound 0.1265 µM)	relative viability ([1]; first compound 0.4 µM)	relative viability ([1]; first compound 1.265 µM)	relative viability ([1]; first compound 4 µM)	relative viability ([2]; first compound 0.04 µM)	relative viability ([2]; first compound 0.1265 µM)	relative viability ([2]; first compound 0.4 µM)	relative viability ([2]; first compound 1.265 µM)	relative viability ([2]; first compound 4 µM)	relative viability ([3]; first compound 0.04 µM)	relative viability ([3]; first compound 0.4 µM)	relative viability ([3]; first compound 1.265 µM)	relative viability ([3]; first compound 4 µM)	relative viability ([4]; first compound 0.04 µM)	relative viability ([4]; first compound 0.1265 µM)	relative viability ([4]; first compound 0.4 µM)	relative viability ([4]; first compound 1.265 µM)	relative viability ([4]; first compound 4 µM)	relative viability ([3]; first compound 0.1265 µM)
HOP-62	0.634	0.622	0.284	0.14	0.147	0.572	0.388	0.15	0.172	0.14	0.385	0.425	0.503	0.688	0.576	0.305	0.252	0.39	0.313	
NCI-H2347	0.295	0.315	0.351	0.283	0.286	0.792	0.543	0.425	0.385	0.348	0.571	0.59	0.577	0.619	0.397	0.353	0.425	0.454	0.44	0.675
NCI-H2087	0.523	0.452	0.358	0.246	0.23	0.635	0.562	0.458	0.369	0.357	0.609	0.575	0.567	0.708	0.734	0.678	0.633	0.587	0.63	0.62
EPLC-272H		0.297	0.118	0.232	0.144	0.734	0.658		0.426	0.413	0.896	0.8	0.964	0.688	0.361	0.345	0.375	0.37	0.282	0.831
LXF-289	0.201	0.193	0.129	0.118	0.0831	0.65	0.53	0.44	0.308	0.29	1.09	1.03	1	1.15	1.1		0.8	0.936	0.863	
COR-L23	0.255	0.347	0.29	0.161	0.18	0.577	0.478	0.382	0.294	0.207	0.429	0.291	0.377	0.309	0.203	0.209	0.2	0.214	0.202	0.333
RERF-LC-KJ	0.703	0.741		0.465	0.485	0.779	0.844	0.279	0.597	0.618	0.841	0.915	0.998	0.979	0.488	0.346	0.444	0.514	0.479	0.866
NCI-H1755	0.47	0.467	0.422	0.365	0.306	0.912	0.887	0.696	0.521	0.302	0.918	0.867	0.836	0.955	0.432	0.391	0.422	0.437	0.449	0.791
PC-14	0.0322	0.142	0.0565	0.0706	0.0858	0.51	0.556	0.231	0.162	0.166	0.348	0.261	0.258	0.377	0.0843	0.143	0.13	0.131	0.146	0.23
